Measured values reported in patent publication US20080139458A1, “Methods of Treatment For Injured or Diseased Joints” (priority 2004, published 2008).

B1: Trypsin: TPCK-treated trypsin (Sigma-Aldrich) used to treat lubricin, BSF and murine joints (protein, UniProt P00760 24-246, looked up)
Serine protease 1: IVGGYTCGANTVPYQVSLNSGYHFCGGSLINSQWVVSAAHCYKSGIQVRLGEDNINVVEGNEQFISASKSIVHPSYNSNTLNNDIMLIKLKSAASLNSRVASISLPTSCASAGTQCLISGWGNTKSSGTSYPDVLKCLKAPILSDSSCKSAYPGQITSNMFCAGYLEGGKDSCQGDSGGPVVCSGKLQGIVSWGSGCAQKNKPGVYTKVCNYVSWIKQTIASN
modifications: TPCK-treated
notes: TPCK-treated trypsin (Sigma-Aldrich) used to treat lubricin, BSF and murine joints

Tests used:
purified human lubricin [1] = experiment: Western blot of protease-treated purified human lubricin (PNA-peroxidase and pAb J108); type: biochemical
Description: Human lubricin was purified from pooled SF aspirates of patients undergoing total knee replacement as described previously (Jay et al., Gluconj. J. 18:807-815, 2001). BSF was aspirated percutaneously from the lateral aspect of radiocarpal joints of freshly slaughtered cattle with sterile 18 gauge needles after cleansing the skin with alcohol swabs. The cattle were 1 year old and of both sexes (PelFreeze Corp., Little Rock, Ark.). The BSF was centrifuged at 20,000 g at 4° C. to remove cell debris and the BSF was stored at −20° C. Aliquots of purified human lubricin (1 mL, 250 μg/1 mL), and BSF (1 mL) were subjected to protease treatments with CB, NE, α-chymotrypsin, or trypsin. These enzymes were utilized as follows: 1) 0.5 U/mL of CB (Sigma-Aldrich, Saint Louis, Mo., one unit liberates 1 nanomole of 7-amino-4-methylcoumarin from Z-Arg-Arg 7-amido-4-methylcoumarin per min at pH 6.0 at 40° C.) reconstituted in 0.25 M Na acetate buffer, pH 5.5; 2) 0.5 U/mL NE (Sigma-Aldrich, one unit is defined as the release of 1 mole of p-nitrophenol per sec at 37° C.) reconstituted in 100 mM Tris-HCl, 100 mM CaCl2, pH 8.8; 3) 0.5 U/mL of TPCK-treated trypsin (Sigma-Aldrich, one unit causes a change in A253 of 0.001 per min at pH 7.6 at 25° C. using BAEE as a substrate) reconstituted in 50 mM Tris HCl, 20 mM CaCl2, pH 8.0; and 4) 0.5 U/mL of α-chymotrypsin (Sigma-Aldrich, one unit hydrolyzes 1.0 μmole of BTEE per min at pH 7.8 at 25° C.) reconstituted in 80 mM Tris-HCl, 100 mM CaCl2, pH 7.8. […]
Probing was performed using pAb J108, which recognizes an epitope; […], encoded by exon 3 within the amino-terminus of human lubricin/SZP and present in all alternatively spliced isoforms (Jay et al., J. Orthop. Res. 19:677-687, 2001). […] Immunopositive bands were detected in a darkroom on BioMax film (Kodak, Rochester, N.Y.). […]

[2] = test system: bovine synovial fluid (BSF); experiment: In vitro friction assay of protease-treated bovine synovial fluid; type: biochemical; details: enzymes 0.5 U/mL, BSF = no enzyme, latex:glass bearing
Description: (§1) Human lubricin was purified from pooled SF aspirates of patients undergoing total knee replacement as described previously (Jay et al., Gluconj. J. 18:807-815, 2001). BSF was aspirated percutaneously from the lateral aspect of radiocarpal joints of freshly slaughtered cattle with sterile 18 gauge needles after cleansing the skin with alcohol swabs. The cattle were 1 year old and of both sexes (PelFreeze Corp., Little Rock, Ark.). The BSF was centrifuged at 20,000 g at 4° C. to remove cell debris and the BSF was stored at −20° C. Aliquots of purified human lubricin (1 mL, 250 μg/1 mL), and BSF (1 mL) were subjected to protease treatments with CB, NE, α-chymotrypsin, or trypsin. These enzymes were utilized as follows: 1) 0.5 U/mL of CB (Sigma-Aldrich, Saint Louis, Mo., one unit liberates 1 nanomole of 7-amino-4-methylcoumarin from Z-Arg-Arg 7-amido-4-methylcoumarin per min at pH 6.0 at 40° C.) reconstituted in 0.25 M Na acetate buffer, pH 5.5; 2) 0.5 U/mL NE (Sigma-Aldrich, one unit is defined as the release of 1 mole of p-nitrophenol per sec at 37° C.) reconstituted in 100 mM Tris-HCl, 100 mM CaCl2, pH 8.8; 3) 0.5 U/mL of TPCK-treated trypsin (Sigma-Aldrich, one unit causes a change in A253 of 0.001 per min at pH 7.6 at 25° C. using BAEE as a substrate) reconstituted in 50 mM Tris HCl, 20 mM CaCl2, pH 8.0; and 4) 0.5 U/mL of α-chymotrypsin (Sigma-Aldrich, one unit hydrolyzes 1.0 μmole of BTEE per min at pH 7.8 at 25° C.) reconstituted in 80 mM Tris-HCl, 100 mM CaCl2, pH 7.8.
(§2) Aliquots of digested human lubricin and BSF (200 μL) were removed after 2, 4, 6, 12, and 24 hours and the reaction was stopped by adding E-64 (L-trans-epoxysuccinyl-leucyl-amido-(4-guanidino)-butane, Sigma-Aldrich) to a final concentration of 100 μM (CB) or phenylmethanesulfonyl fluoride (PMSF, Sigma-Aldrich) to a final concentration of 1 mM (NE).
(§3) The boundary lubricating abilities of protease-treated human lubricin and BSF were measured using a friction apparatus as reported by Davis et al., J. Biomech. Eng. 101:185-192, 1979. Lubricant (200 μL) was applied between a bearing of latex and a ring of polished glass with a contact area of 1.59 cm^2. The latex was oscillated, under a pressure of 0.35×10^6 N/m^2, against the polished glass with an entraining velocity of 0.37 mm/sec. The bearing system was axially loaded within a gimbals system free to rotate around two perpendicular horizontal axes. The friction apparatus recorded displacements of the gimbals system around the vertical loading axis through a linear displacement voltage transducer, where the output was directly proportional to the frictional torque (F). A bearing load of 70 newtons (N) was related to the coefficient of friction (μ) via Amonton's law, F=μN.
(§4) The μ of the lubricant was recorded at room temperature and was preceded by a baseline measurement of μ with normal saline (NS). Lubrication was manifested by a reduction in μ by the lubricant relative to that of NS. Negative Δμ (−Δμ) values indicate lubrication whereas positive Δμ (+Δμ) indicate friction. Addition of 200 μL of lubricant was followed by bringing the bearing surfaces close enough so that the solution wet both surfaces. After 5 min for equilibration, the latex-coated bearing was brought to rest on the glass as it was oscillating. Voltage measurements were recorded at 1, 3, and 5 min. After 5 min, the surfaces were separated for 2 min and then brought back together for three additional 5 min session. The 3 and 5 min μ values of the last two 5 min session were recorded and averaged, and data were later combined with another duplicate experiment providing 8 distinct measurements of μ.

excised murine joints = experiment: Ex vivo friction coefficient of excised murine joints after intra-articular protease (modified Stanton pendulum); design: species or system murine (Svev129 mice); details: for Friction coefficient μ ± S.D.: n = 4; for average increase in μ: after vs before intra-articular injection of 0.05 U, 2 hours at room temperature
Description: Murine joint friction measurements were performed ex vivo in a modified Stanton pendulum configuration (Chamely, New Scientist 6:60, 1959) illustrated in FIG. 2. Excised murine joints, from 8 week old Svev129 mice, weighing approximately 20 grams (Taconic, Germantown, N.Y.), were stripped of supporting connective tissue and musculature, while the synovium was left undisturbed. The femur and tibia were severed mid-length and covered with connecting plexiglass tubing. The center of the joint served as the axis of rotation of a 1 Hz pendulum. The joints were loaded with 20 grams and allowed to oscillate. The pendulum was set in motion at an angle of 30° off the perpendicular axis. The pendulum motion was videotaped and post-hoc analysis was performed to establish baseline μ. The deceleration of the pendulum, a=dv/dt, was used to calculate μ. Velocity (v) was calculated from the equation: v=(2 gh)^1/2 where h is the height from where the pendulum reached apogee to the point of maximum velocity at a=0. The μ of murine joint was calculated to be equal a/g. Presently, this calculation neglects aerodynamic drag and assumes g equals 9.81 m/s^2. A 5 μL protease solution containing 0.05 U of CB, NE, α-chymotrypsin, or trypsin was delivered intra-articularly. The limbs were treated at room temperature for 2 hours and the limbs were subsequently allowed to oscillate to estimate μ following treatment with the protease.

purified human lubricin [3] = experiment: In vitro friction assay of protease-treated purified human lubricin; type: biochemical; details: enzymes 0.5 U/mL, Lubricin = no enzyme, latex:glass bearing
Description: as §1, §2, §3, §4

[4] = After intra-articular injection of 5 μl containing 0.05 U, 2 hour treatment at room temperature
[5] = Before intra-articular injection (baseline)

| Molecule | Degradation of lubricin (band intensities) (purified human lubricin [1]; 0.5 U/mL, 2, 4, 6, 12, and 24 hours post-treatment) | pAb J108 immunoreactive bands (purified human lubricin [1]; following NE treatment for 2 hours at 37° C.) | Change in coefficient of friction Δμ ± S.D. ([2]; 0 hrs) | Change in coefficient of friction Δμ ± S.D. ([2]; 2 hrs) | Change in coefficient of friction Δμ ± S.D. ([2]; 4 hrs) | Change in coefficient of friction Δμ ± S.D. ([2]; 6 hrs) | Change in coefficient of friction Δμ ± S.D. ([2]; 12 hrs) | Change in coefficient of friction Δμ ± S.D. ([2]; 24 hrs) | Friction coefficient μ ± S.D. (excised murine joints; [4]) | Friction coefficient μ ± S.D. (excised murine joints; [5]) | average increase in μ (excised murine joints) [%] | Change in coefficient of friction Δμ ± S.D. (purified human lubricin [3]; 0 hrs) | Change in coefficient of friction Δμ ± S.D. (purified human lubricin [3]; 2 hrs) | Change in coefficient of friction Δμ ± S.D. (purified human lubricin [3]; 4 hrs) | Change in coefficient of friction Δμ ± S.D. (purified human lubricin [3]; 6 hrs) | Change in coefficient of friction Δμ ± S.D. (purified human lubricin [3]; 12 hrs) | Change in coefficient of friction Δμ ± S.D. (purified human lubricin [3]; 24 hrs) | PNA and J108 reactivity of lubricin (purified human lubricin [1]; after 2 hours of treatment (data not shown)) |
| --- | --- | --- | --- | --- | --- | --- | --- | --- | --- | --- | --- | --- | --- | --- | --- | --- | --- | --- |
| Neutrophil Elastase: protease (Sigma-Aldrich) used to treat lubricin, BSF and murine joints | time-dependent degradation of lubricin | no pAb J108 immunoreactive bands were detected | −0.061 ± 0.005 | −0.039 ± 0.001 | 0.007 ± 0.001 | 0.009 ± 0.001 | 0.010 ± 0.001 | 0.013 ± 0.002 | 0.0028 ± 0.0008 | 0.0022 ± 0.0005 | 27.3 | −0.068 ± 0.005 | −0.038 ± 0.005 | −0.019 ± 0.004 | 0.004 ± 0.001 | 0.015 ± 0.003 | 0.054 ± 0.006 | – |
| B1 | – | – | −0.061 ± 0.005 | −0.031 ± 0.005 | −0.015 ± 0.002 | 0.005 ± 0.001 | 0.009 ± 0.003 | 0.012 ± 0.004 | 0.0034 ± 0.0003 | 0.0018 ± 0.0001 | 88.9 | −0.068 ± 0.005 | 0.025 ± 0.006 | 0.032 ± 0.005 | 0.038 ± 0.001 | 0.046 ± 0.005 | 0.049 ± 0.005 | complete loss of PNA and J108 reactivity |
